Each structure is given as a SMILES string. The source made the active and inactive calls. The calls are words filed in the database; no cut-off is given here.

In series [1] the test system is RAW264.7. Nature of the series: Anti-inflammatory activity in mouse RAW264.7 cells assessed as inhibition of LPS-induced IL-1beta production at 10 uM pretreated for 2 hrs followed by LPS stimulation measured after over night incubation by ELISA relative to control. In kind it is functional. On the technique in general: An ELISA detects its analyte on a solid surface through an enzyme-linked reagent.

A short description of series [2]: Cytotoxicity against human THP1 cells assessed as cell viability at 10 uM by CellTiter-Glo luminescent assay relative to control. In kind it is cell-based. The following applies: THP-1 cells, read-out: Activity.
In series [3] the test system is RAW264.7. Nature of the series: Anti-inflammatory activity in mouse RAW264.7 cells assessed as inhibition of LPS-induced TNF-alpha production at 10 uM pretreated for 2 hrs followed by LPS stimulation measured after over night incubation by ELISA relative to control. In kind it is functional.
Series [4] concerns the target Transcription factor p65 (Mus musculus) (UniProt Q04207). Nature of the series: Inhibition of LPS-induced NF-kappaB-p65 nuclear translocation in mouse RAW264.7 cells at 10 uM by DAPI staining-based immunofluorescence analysis. In kind it is cell-based.
Series [5] has as its system Mus musculus. Put plainly: Anti-inflammatory activity in ICR mouse assessed as inhibition of carrageenan-induced hind paw edema volume at 10 mg/kg administered via gavage treated for 30 mins post carrageenan challenge measured after 2 to 3 hrs. In kind it is functional, organism-based. (In general: Carrageenan injected into the paw causes an acute inflammation.)
The target in series [6] is MAP kinase p38 (Mus musculus) (UniProt P47811+O08911+Q9WUI1+Q9Z1B7). Nature of the series: Inhibition of LPS-induced p38 phosphorylation in mouse RAW264.7 cells at 10 uM measured after 24 hrs by Western blot method. In kind it is cell-based. On the technique in general: In western blotting, separated proteins are transferred to a membrane and probed.
Series [7] has as its system RAW264.7. Nature of the series: Anti-inflammatory activity in mouse RAW264.7 cells assessed as inhibition of LPS-induced IL-6 production pretreated for 2 hrs followed by LPS stimulation measured after over night incubation by ELISA. In kind it is functional, cell-based.
Series [8] concerns RAW264.7. Put plainly: Anti-inflammatory activity in mouse RAW264.7 cells assessed as inhibition of LPS-induced PGE2 production pretreated for 2 hrs followed by LPS stimulation measured after over night incubation by ELISA. In kind it is functional, cell-based.
For series [9], the system named is RAW264.7. Put plainly: Inhibition of LPS-induced ERK phosphorylation in mouse RAW264.7 cells at 10 uM measured after 24 hrs by Western blot method. In kind it is cell-based.
Series [10] deals with Mus musculus. Put plainly: Anti-inflammatory activity in ICR mouse assessed as inhibition of carrageenan-induced hind paw edema volume at 10 mg/kg administered via gavage treated for 30 mins post carrageenan challenge measured after 2 to 5 hrs. In kind it is functional, organism-based.
In series [11] the test system is RAW264.7. Put plainly: Anti-inflammatory activity in mouse RAW264.7 cells assessed as inhibition of LPS-induced NO release pretreated for 2 hrs followed by LPS stimulation measured after 48 hrs […]. In kind it is functional, cell-based.
Series [12] concerns RAW264.7. Nature of the series: Anti-inflammatory activity in mouse RAW264.7 cells assessed as inhibition of LPS-induced COX-2 mRNA expression at 10 uM after 24 hrs by RT-qPCR analysis. In kind it is functional, cell-based.
The target of series [13] is T1, NF-kappa-B inhibitor alpha (Mus musculus) (UniProt Q9Z1E3).
T1 sequence (whole entry): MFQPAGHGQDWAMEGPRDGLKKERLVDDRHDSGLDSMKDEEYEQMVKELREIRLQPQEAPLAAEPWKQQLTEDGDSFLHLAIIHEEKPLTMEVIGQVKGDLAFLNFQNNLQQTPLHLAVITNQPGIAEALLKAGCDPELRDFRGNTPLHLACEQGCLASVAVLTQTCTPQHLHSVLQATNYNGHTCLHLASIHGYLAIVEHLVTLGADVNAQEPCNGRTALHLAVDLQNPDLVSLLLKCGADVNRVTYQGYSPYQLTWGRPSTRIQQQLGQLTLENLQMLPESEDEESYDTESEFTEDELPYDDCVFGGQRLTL
Nature of the series: Inhibition of LPS-induced IkappaBalpha phosphorylation in mouse RAW264.7 cells at 10 uM measured after 24 hrs by Western blot method. In kind it is cell-based.

Series [14] relates to RAW264.7. Put plainly: Inhibition of LPS-induced JNK phosphorylation in mouse RAW264.7 cells at 10 uM measured after 24 hrs by Western blot method. In kind it is cell-based.
In series [15] the test system is RAW264.7. Put plainly: Anti-inflammatory activity in mouse RAW264.7 cells assessed as inhibition of LPS-induced IL-1beta production pretreated for 2 hrs followed by LPS stimulation measured after over night incubation by ELISA. In kind it is functional, cell-based.
For series [16], the system named is RAW264.7. Put plainly: Anti-inflammatory activity in mouse RAW264.7 cells assessed as inhibition of LPS-induced iNOS mRNA expression at 10 uM after 24 hrs by RT-qPCR analysis. In kind it is functional, cell-based.
For series [17], the system named is RAW264.7. Put plainly: Anti-inflammatory activity in mouse RAW264.7 cells assessed as inhibition of LPS-induced TNF-alpha production pretreated for 2 hrs followed by LPS stimulation measured after over night incubation by ELISA. In kind it is functional, cell-based.
Series [18] relates to Mus musculus. Put plainly: Anti-inflammatory activity in ICR mouse assessed as inhibition of carrageenan-induced hind paw edema volume at 10 mg/kg administered via gavage treated for 30 mins post carrageenan challenge measured after 3 to 5 hrs. In kind it is functional, organism-based.

Chain of Transcription factor p65 (Mus musculus) (Q04207 whole entry): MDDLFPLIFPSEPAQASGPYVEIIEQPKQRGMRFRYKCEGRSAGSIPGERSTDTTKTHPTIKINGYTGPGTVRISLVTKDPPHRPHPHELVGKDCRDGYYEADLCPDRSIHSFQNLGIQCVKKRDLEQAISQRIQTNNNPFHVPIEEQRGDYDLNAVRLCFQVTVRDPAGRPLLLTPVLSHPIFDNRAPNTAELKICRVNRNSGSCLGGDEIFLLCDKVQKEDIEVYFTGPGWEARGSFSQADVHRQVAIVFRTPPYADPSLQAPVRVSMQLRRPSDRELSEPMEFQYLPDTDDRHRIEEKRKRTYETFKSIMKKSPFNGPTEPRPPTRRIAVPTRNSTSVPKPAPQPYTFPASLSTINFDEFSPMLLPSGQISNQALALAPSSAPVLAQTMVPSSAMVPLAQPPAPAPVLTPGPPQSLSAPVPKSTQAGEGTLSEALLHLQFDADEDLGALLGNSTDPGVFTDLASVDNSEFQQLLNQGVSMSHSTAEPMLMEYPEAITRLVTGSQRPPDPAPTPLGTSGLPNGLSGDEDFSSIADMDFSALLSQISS

For the compound `CC(=O)NS(=O)(=O)c1ccc(Nc2ncnc3[nH]cnc23)cc1`, the values for the inhibition at 10 µM in [1] and in [3] were 16.1% and 12.4%, respectively. Besides, the viability at 10 µM in series [2] worked out at 90.7%.
As for `Clc1ccccc1CNc1[nH]cnc2ncnc1-2`, the inhibition entry in [4], in [5], in series [6], in [9], in series [10] and in series [12] was “Active” throughout. Also, the inhibition result in series [13], in series [14] and in series [16] was “Active” each time. For the same compound, the inhibition entry in series [7], in [8], in series [15] and in series [17] was “Dose-dependent effect” throughout. Also, the inhibition – broadly, the change of the read-out against control, counted positive when it falls – at 10 µM is 89% in series [1] and 86.2% in series [3]. In addition, in series [11], the IC50 – broadly, the concentration at which inhibition is half-maximal – amounted to 3.54 µM.
For the compound `c1coc(CNc2ncnc3[nH]cnc23)c1` [KINETIN], the results for the inhibition at 10 µM in series [1] and in series [3] were -19.5% and 45.9%, respectively. Also, in series [2], the viability at 10 µM was found to be 107%.
As to `COc1cc(Cn2cnc3c(NCc4ccccc4Cl)ncnc32)cc(OC)c1`, the inhibition at 10 µM in [1] came out at 19.8%; in series [3] it was 9.65%. Moreover, in series [2], the viability at 10 µM is 90.2%.
As for `Oc1ccc(Nc2ncnc3[nH]cnc23)cc1`, the values for the inhibition at 10 µM in [1] and in series [3] were 12.4% and 18.5%, respectively. The viability at 10 µM in series [2] came to 95.9%.
As for `c1nc2nc[nH]c(N3CCCC3)c-2n1`, the values for the inhibition at 10 µM in series [1] and in series [3] were -9.43% and 11.7%, respectively. The viability at 10 µM in series [2] came to 91.1%.
Turning to `Clc1ccccc1CNc1ncnc2nc[nH]c12`, the viability at 10 µM in series [2] is 93.8%.
On to `CCCn1cnc2c(NCc3ccccc3Cl)ncnc21`, for which the figures for the inhibition at 10 µM in series [1] and in series [3] were 14.1% and 22.4%, respectively. In addition, the viability at 10 µM in [2] came out at 103%.
As for `Clc1cccc(Nc2ncnc3[nH]cnc23)c1`, the inhibition at 10 µM in [1] stood at 12.2%; in series [3] it was 18.5%. Besides, the viability at 10 µM in [2] came to 91%.
Consider `Clc1ccc(Nc2ncnc3[nH]cnc23)cc1`, for which the inhibition at 10 µM in series [1] stood at 28.6%; in [3], 16.1%. Moreover, in series [2], the viability at 10 µM amounted to 92%.
In the case of `COc1ccc(Nc2ncnc3[nH]cnc23)cc1`, the inhibition at 10 µM in series [1] turned out to be 7.29%; in series [3], 25.6%. Further, the viability at 10 µM in series [2] stood at 100%.
Take `COc1cccc(Nc2ncnc3[nH]cnc23)c1`: the inhibition result in [4], in [5], in series [6], in series [9], in series [12] and in series [13] was “Active” in each case. Moreover, the inhibition entry in series [14] and in series [16] was “Active” in each case. Also, the inhibition entry in series [7], in [8], in series [15] and in [17] was “Dose-dependent effect” in each case. Moreover, the inhibition at 10 µM came out at 88.9% in series [1] and 69.8% in [3]. Also, the IC50 in series [11] amounted to 3.38 µM. The viability at 10 µM in [2] amounted to 90.7%.
As to `Fc1cc(Nc2ncnc3[nH]cnc23)ccc1Cl`, the inhibition entry in [4], in series [5], in [6], in [9], in series [12] and in series [13] was “Active” in each case. Also, the inhibition result in [14], in series [16] and in [18] was “Active” in each case. Moreover, the inhibition result in [7], in series [8], in series [15] and in [17] was “Dose-dependent effect” each time. Besides, the inhibition at 10 µM in series [1] was determined as 84.2%; in series [3] it was 71%. The IC50 in series [11] came to 4.43 µM. Also, the viability at 10 µM in [2] was found to be 99.3%.
`Fc1ccc(CNc2ncnc3nc[nH]c23)cc1`: the inhibition at 10 µM in [1] was determined as 14.6%; in series [3], 22.4%. The viability at 10 µM in series [2] stood at 92.9%.

For the origin of these results see ChEMBL document CHEMBL4196044, “Design, synthesis and ability of non-gold complexed substituted purine derivatives to inhibit LPS-induced inflammatory response” (Eur J Med Chem, 2018).
